Reference: patent publication US12599136B2, “Substituted isophthalic acid diamides and their use as herbicides” (Bayer Aktiengesellschaft, priority 2020, dated 2026)

Experiments:
Assay type in all cases: in vivo
[1] = system: Setaria viridis; test: Pre-emergence herbicidal action against SETVI
Summary of the method: (§1)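 Greenhouse pots of sandy loam held seeds covered with soil, onto which the compound was applied before emergence. An aqueous suspension or emulsion of WP or EC was used at 600 to 800 l/ha with 0.2% wetting agent. Percent damage was judged visually at 3 weeks.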

[2] = system: Veronica persica; test: Post-emergence herbicidal action against VERPE; details: visual assessment about 3 weeks after treatment
Summary of the method: (§2)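 Foliar application at one-leaf stage of formulated test compounds, aqueous spray at 600–800 l/ha with 0.2% wetting agent. Greenhouse, optimal conditions, ~3 weeks; damage scored visually in % relative to untreated plants.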

[3] = system: Alopecurus myosuroides; test: Pre-emergence herbicidal action against ALOMY; details: visual score after 3 weeks vs untreated controls
Summary of the method: as §1

[4] = system: Amaranthus retroflexus; test: Post-emergence herbicidal action against AMARE; details: visual assessment about 3 weeks after treatment
Summary of the method: as §2

[5] = system: Veronica persica; test: Pre-emergence herbicidal action against VERPE
Summary of the method: as §1

[6] = system: Setaria viridis; test: Post-emergence herbicidal action against SETVI; details: visual assessment about 3 weeks after treatment
Summary of the method: as §2

[7] = system: Amaranthus retroflexus; test: Pre-emergence herbicidal action against AMARE; details: visual score after 3 weeks vs untreated controls
Summary of the method: as §1

[8] = system: Abutilon theophrasti; test: Pre-emergence herbicidal action against ABUTH; details: visual score after 3 weeks vs untreated controls
Summary of the method: as §1

[9] = system: Abutilon theophrasti; test: Post-emergence herbicidal action against ABUTH
Summary of the method: as §2

[10] = system: Echinochloa crus-galli; test: Pre-emergence herbicidal action against ECHCG; details: visual score after 3 weeks vs untreated controls
Summary of the method: as §1

[11] = system: Alopecurus myosuroides; test: Post-emergence herbicidal action against ALOMY
Summary of the method: as §2

[12] = system: Hordeum murinum; test: Pre-emergence herbicidal action against HORMU; details: 320 g/ha; visual score after 3 weeks vs untreated controls
From the text: (§3) Seeds of monocotyledonous and dicotyledonous weed plants and crop plants are laid out in sandy loam soil in wood-fiber pots and covered with soil. The compounds of the invention, formulated in the form of wettable powders (WP) or as emulsion concentrates (EC), are then applied to the surface of the covering soil in the form of an aqueous suspension or emulsion at a water application rate equivalent to 600 to 800 l/ha, with addition of 0.2% wetting agent. After the treatment, the pots are placed in a greenhouse and kept under good growth conditions for the trial plants. The damage to the test plants is scored visually after a test period of 3 weeks by comparison with untreated controls (herbicidal activity in percent (%): 100% activity=the plants have died, 0% activity=like control plants). […] The tables below illustrate, in an illustrative manner, the post-emergence herbicidal action of the compounds of the invention, the herbicidal activity being stated in percent.

[13] = system: Viola tricolor; test: Post-emergence herbicidal action against VIOTR
Summary of the method: as §2

[14] = system: Matricaria inodora; test: Post-emergence herbicidal action against MATIN; details: visual assessment about 3 weeks after treatment
Summary of the method: as §2

[15] = system: Polygonum convolvulus; test: Pre-emergence herbicidal action against POLCO
Summary of the method: as §1

[16] = system: Lolium rigidum; test: Pre-emergence herbicidal action against LOLRI
Summary of the method: as §1

[17] = system: Stellaria media; test: Post-emergence herbicidal action against STEME; details: visual assessment about 3 weeks after treatment
Description: (§4) Seeds of monocotyledonous and dicotyledonous weed and crop plants are laid out in sandy loam soil in wood-fiber pots, covered with soil and cultivated in a greenhouse under good growth conditions. 2 to 3 weeks after sowing, the test plants are treated at the one-leaf stage. The compounds of the invention, formulated in the form of wettable powders (WP) or as emulsion concentrates (EC), are then sprayed onto the green parts of the plants in the form of an aqueous suspension or emulsion at a water application rate equivalent to 600 to 800 l/ha, with addition of 0.2% wetting agent. After the test plants have been left to stand in the greenhouse under optimal growth conditions for about 3 weeks, the action of the preparations is assessed visually in comparison to untreated controls (herbicidal action in percent (%): 100% activity=the plants have died, 0% activity=like control plants). […] The tables below illustrate, in an illustrative manner, the post-emergence herbicidal action of the compounds of the invention, the herbicidal activity being stated in percent.

[18] = system: Viola tricolor; test: Pre-emergence herbicidal action against VIOTR
Summary of the method: as §1

[19] = system: Avena fatua; test: Pre-emergence herbicidal action against AVEFA; details: visual score after 3 weeks vs untreated controls
Summary of the method: as §1

[20] = system: Stellaria media; test: Pre-emergence herbicidal action against STEME
From the text: as §3

[21] = system: Pharbitis purpurea; test: Post-emergence herbicidal action against PHBPU; details: visual assessment about 3 weeks after treatment
Summary of the method: as §2

[22] = system: Matricaria inodora; test: Pre-emergence herbicidal action against MATIN; details: visual score after 3 weeks vs untreated controls
Summary of the method: as §1

[23] = system: Echinochloa crus-galli; test: Post-emergence herbicidal action against ECHCG; details: visual assessment about 3 weeks after treatment
Summary of the method: as §2

[24] = system: Cyperus esculentus; test: Pre-emergence herbicidal action against CYPES; details: visual score after 3 weeks vs untreated controls
From the text: as §3

[25] = system: Avena fatua; test: Post-emergence herbicidal action against AVEFA; details: visual assessment about 3 weeks after treatment
Summary of the method: as §2

[26] = system: Hordeum murinum; test: Post-emergence herbicidal action against HORMU; details: 80 g/ha
Description: as §4

[27] = system: Pharbitis purpurea; test: Pre-emergence herbicidal action against PHBPU; details: 80 g/ha; visual score after 3 weeks vs untreated controls
Summary of the method: as §1

[28] = system: Digitaria sanguinalis; test: Post-emergence herbicidal action against DIGSA
Summary of the method: as §2

## CN(C(=O)c1c(Cl)ccc(C(=O)Nc2nnnn2C)c1Cl)c1ccccc1 [Example 1-398]
[1]; 80 g/ha
  Pre-emergence action against SETVI: 100%
[1]; 320 g/ha
  Pre-emergence action against SETVI: 100%
[2]; 20 g/ha
  Post-emergence action against VERPE in %: 80%
[2]; 80 g/ha
  Post-emergence action against VERPE in %: 90%
[3]; 20 g/ha
  Pre-emergence action against ALOMY: 80%
[3]; 80 g/ha
  Pre-emergence action against ALOMY: 100%
[3]; 320 g/ha
  Pre-emergence action against ALOMY: 100%
[4]; 5 g/ha
  Post-emergence action against AMARE in %: 80%
[4]; 20 g/ha
  Post-emergence action against AMARE in %: 100%
[4]; 80 g/ha
  Post-emergence action against AMARE in %: 100%
[5]; 320 g/ha
  Pre-emergence action against VERPE: 100%
[6]; 80 g/ha
  Post-emergence action against SETVI in %: 100%
[7]; 20 g/ha
  Pre-emergence action against AMARE: 90%
[7]; 80 g/ha
  Pre-emergence action against AMARE: 100%
[7]; 320 g/ha
  Pre-emergence action against AMARE: 100%
[8]; 20 g/ha
  Pre-emergence action against ABUTH: 100%
[8]; 80 g/ha
  Pre-emergence action against ABUTH: 100%
[8]; Dosage column 320 g/ha (heading prints 3200 g/ha)
  Pre-emergence action against ABUTH: 100%
[9]; 20 g/ha
  Post-emergence action against ABUTH: 100%
[9]; 80 g/ha
  Post-emergence action against ABUTH: 100%
[10]; 80 g/ha
  Pre-emergence action against ECHCG: 80%
[10]; 320 g/ha
  Pre-emergence action against ECHCG: 100%
[11]; 80 g/ha
  Post-emergence action against ALOMY: 100%
[12]
  Pre-emergence action against HORMU: 100%
[13]; 80 g/ha
  Post-emergence action against VIOTR in %: 90%
[14]; 80 g/ha
  Post-emergence action against MATIN in %: 90%
[15]; 320 g/ha
  Pre-emergence action against POLCO: 100%
[16]; 320 g/ha
  Pre-emergence action against LOLRI: 90%
[17]; 5 g/ha
  Post-emergence action against STEME in %: 80%
[17]; 20 g/ha
  Post-emergence action against STEME in %: 90%
[17]; 80 g/ha
  Post-emergence action against STEME in %: 100%
[18]; 80 g/ha
  Pre-emergence action against VIOTR: 80%
[18]; 320 g/ha
  Pre-emergence action against VIOTR: 100%
[19]; 80 g/ha
  Pre-emergence action against AVEFA: 80%
[19]; 320 g/ha
  Pre-emergence action against AVEFA: 90%
[20]; 20 g/ha
  Pre-emergence action against STEME: 90%
[20]; 80 g/ha
  Pre-emergence action against STEME: 100%
[20]; 320 g/ha
  Pre-emergence action against STEME: 100%
[21]; 20 g/ha
  Post-emergence action against PHBPU in %: 80%
[21]; 80 g/ha
  Post-emergence action against PHBPU in %: 80%
[22]; 20 g/ha
  Pre-emergence action against MATIN: 90%
[22]; 80 g/ha
  Pre-emergence action against MATIN: 100%
[22]; 320 g/ha
  Pre-emergence action against MATIN: 100%
[23]; 20 g/ha
  Post-emergence action against ECHCG in %: 100%
[23]; 80 g/ha
  Post-emergence action against ECHCG in %: 100%
[24]; 80 g/ha
  Pre-emergence action against CYPES: 80%
[24]; 320 g/ha
  Pre-emergence action against CYPES: 90%
[25]; 80 g/ha
  Post-emergence action against AVEFA in %: 80%
[26]
  Post-emergence action against HORMU in %: 80%

## CCN(CC)C(=O)c1c(C(F)F)ccc(C(=O)Nc2nnnn2C)c1Cl [Example 1-166]
[1]; 80 g/ha
  Pre-emergence action against SETVI: 100%
[2]; 20 g/ha
  Post-emergence action against VERPE in %: 80%
[3]; 80 g/ha
  Pre-emergence action against ALOMY: 90%
[4]; 5 g/ha
  Post-emergence action against AMARE in %: 100%
[4]; 20 g/ha
  Post-emergence action against AMARE in %: 100%
[5]; 80 g/ha
  Pre-emergence action against VERPE: 100%
[27]
  Pre-emergence action against PHBPU: 90%
[6]; 5 g/ha
  Post-emergence action against SETVI in %: 80%
[6]; 20 g/ha
  Post-emergence action against SETVI in %: 100%
[7]; 20 g/ha
  Pre-emergence action against AMARE: 100%
[7]; 80 g/ha
  Pre-emergence action against AMARE: 100%
[8]; 20 g/ha
  Pre-emergence action against ABUTH: 100%
[8]; 80 g/ha
  Pre-emergence action against ABUTH: 100%
[9]; 5 g/ha
  Post-emergence action against ABUTH: 80%
[9]; 20 g/ha
  Post-emergence action against ABUTH: 90%
[10]; 80 g/ha
  Pre-emergence action against ECHCG: 100%
[11]; 5 g/ha
  Post-emergence action against ALOMY: 80%
[11]; 20 g/ha
  Post-emergence action against ALOMY: 80%
[13]; 20 g/ha
  Post-emergence action against VIOTR in %: 80%
[14]; 5 g/ha
  Post-emergence action against MATIN in %: 80%
[14]; 20 g/ha
  Post-emergence action against MATIN in %: 90%
[15]; 80 g/ha
  Pre-emergence action against POLCO: 80%
[16]; 80 g/ha
  Pre-emergence action against LOLRI: 80%
[28]; 5 g/ha
  Post-emergence action against DIGSA in %: 90%
[28]; 20 g/ha
  Post-emergence action against DIGSA in %: 90%
[18]; 80 g/ha
  Pre-emergence action against VIOTR: 100%
[19]; 80 g/ha
  Pre-emergence action against AVEFA: 90%
[21]; 5 g/ha
  Post-emergence action against PHBPU in %: 90%
[21]; 20 g/ha
  Post-emergence action against PHBPU in %: 90%
[22]; 20 g/ha
  Pre-emergence action against MATIN: 90%
[22]; 80 g/ha
  Pre-emergence action against MATIN: 90%
[25]; 20 g/ha
  Post-emergence action against AVEFA in %: 80%
